In BindingDB's records for doi:10.1016/j.bmc.2015.01.038 (Technical University of Denmark, 2015):

Assay: Antagonist activity at lasB in Pseudomonas aeruginosa harboring lasB-gfp gene assessed as inhibition of […]-induced quorum sensing by green fluorescence protein reporter assay

SMILES | IC50 [µM]
O=C(Cn1cc(C2CC2)nn1)N[C@H]1CCOC1=O | 499
O=C(Cn1cc(-c2ccsc2)nn1)N[C@H]1CCOC1=O | 582
CCCc1cn(CC(=O)N[C@H]2CCOC2=O)nn1 | 678
[N-]=[N+]=Nc1ccc(C(=O)N[C@H]2CCOC2=O)cc1 | 1100
CCCCCCc1cn(CC(=O)N[C@H]2CCOC2=O)nn1 | 425
O=Cc1cccc(-n2cc(CCC(=O)N[C@H]3CCOC3=O)nn2)c1 | 381
O=C(Cn1cc(CSc2ccccc2)nn1)N[C@H]1CCOC1=O | 692
O=C(Cn1cc(C2CCCC2)nn1)N[C@H]1CCOC1=O | 610
O=C(Cn1cc(C2CCCCC2)nn1)N[C@H]1CCOC1=O | 889
